Experimental data as given in patent US12528802B2, “Heterocyclic compound” (Takeda Pharmaceutical Company Limited, priority 2019, dated 2026).

target: T1, glucosylceramide synthase (Homo sapiens, UniProt Q16739); assay: Glucosylceramide synthase (GCS) enzyme assay, microsome fraction, C8 glucosylceramide quantified by Rapidfire MS/MS; format: biochemical; details: test compound 10 μM; 1.7 μM UDP-glucose, 3 μM C8 ceramide; room temperature 60 min
T1 construct: made in house; host or cells: Expi293F cells (transient expression, pcDNA3.3-TOPO vector); microsome fraction used as enzyme source
T1 sequence (Q16739 1-394): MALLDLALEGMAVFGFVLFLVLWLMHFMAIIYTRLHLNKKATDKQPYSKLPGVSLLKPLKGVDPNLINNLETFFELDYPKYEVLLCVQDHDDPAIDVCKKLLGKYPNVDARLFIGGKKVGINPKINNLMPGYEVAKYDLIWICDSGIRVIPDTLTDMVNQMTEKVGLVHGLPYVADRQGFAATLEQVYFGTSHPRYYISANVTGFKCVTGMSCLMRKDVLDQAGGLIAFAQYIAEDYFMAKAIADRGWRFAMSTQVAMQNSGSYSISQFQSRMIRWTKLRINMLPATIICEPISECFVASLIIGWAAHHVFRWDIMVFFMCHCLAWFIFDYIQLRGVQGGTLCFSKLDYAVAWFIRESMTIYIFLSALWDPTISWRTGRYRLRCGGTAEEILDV
Experimental: Glucosylceramide Synthase (GCS) Assay
In enzyme assay, a microsome fraction obtained by transient expression by Expi293F™ cells (catalog number: A14527, Thermo Fisher Scientific) was used as a glucosylceramide synthase source. Liposomal C8 ceramide and UDP-glucose were used as substrates. […] After the enzymatic reaction, the analysis was performed with Rapidfire MS/MS (API-4000™, SCIEX), and C8 glucosylceramide was quantified to evaluate the inhibitory activity of the test compound against glucosylceramide synthase activity.
PcDNA3.3TOPO vector (catalog number: K830001, Thermo Fisher Scientific) into which the human GCS gene was inserted was introduced into Expi293F™ Cells (catalog number: A14527, Thermo Fisher Scientific) by using ExpiFectamine™ 293 Transfection Kit (catalog number: A14525, Thermo Fisher Scientific). The cultured cells were dissolved in D-PBS (catalog number: 048-29805, Fuji Film Wako Pure Chemical Industries, Ltd.) containing 1 mM PMSF, and the solution was allowed to stand on ice for 30 minutes, and then subjected to cell disruption (homogenized). The disruption solution was centrifuged at 10,000×g for 20 minutes at 4° C., and the obtained supernatant was centrifuged at 142,400×g for 60 minutes at 4° C. The obtained precipitate was resuspended in a D-PBS solution containing 1 mM PMSF, and homogenized again to prepare as a microsome fraction. Protein quantification was performed by the CBB method.
A 1 mM compound solution prepared by dissolving the test compound in DMSO was added to a 384-well plate by 100 nL so that the final concentration of the test compound was 10 μM. Next, a substrate solution consisting of 3.4 μM UDP-glucose and 6 μM C8 ceramide was added by 5 μL, followed by an enzyme solution consisting of a 25 μg/mL microsome fraction by 5 μL. C8 ceramide was prepared from liposomes composed of 15 mol % C8 ceramide and 85 mol % dioleoyl phosphatidylcholine (1,2-dioleoyl-sn-glycero-3-phosphocholine: DOPC). The enzymatic reaction was carried out in a solution consisting of 20 mM tris-hydrochloric acid buffer (pH 7.5), 0.01% Tween 20, 0.01% bovine serum albumin and 1 mM dithiothreitol at room temperature for 60 min. Then, a solution consisting of 75% isopropanol and 1% formic acid containing 0.25 μM N-Octadecanoyl-D35-psichosine (catalog number: 1914, Matreya) as an internal standard substance was added by 60 μL to stop the enzymatic reaction. 5 μL of the centrifugal supernatant of the obtained reaction product was analyzed by Rapidfire MS/MS (Agilent Technologies) using API-4000™ (SCIEX), and the C8 glucosylceramide was quantified to evaluate the inhibitory activity of the test compound against the glucosylceramide synthase activity. The inhibitory activity of the test compound was evaluated when the C8 glucosylceramide level in the enzyme-free solution was considered as 100% inhibitory and the enzyme activity of the DMSO group in the absence of the compound was considered as 0% inhibitory.

| Structure (SMILES) | GCS enzyme inhibitory rate at 10 μM (%) (% of control) |
| --- | --- |
| O=C1c2ccnc(-c3ccc(F)cc3OCC(F)(F)F)c2CN1c1ccc(C(O)C(F)(F)F)cc1 (single isomer, unassigned) [Example 286, (R or S)-4-[4-fluoro-2-(2,2,2-trifluoroethoxy)phenyl]-2-[4-(2,2,2-trifluoro-1-hydroxyethyl)phenyl]-2,3-dihydro-1H-pyrrolo [3,4-c]pyridin-1-one] | 96 |

same assay, conditions: test compound 10 μM; 1.7 μM UDP-glucose, 3 μM C8 ceramide; room temperature 60 min; read-out: GCS enzyme inhibitory rate at 10 μM (%) (% of control)

| Structure (SMILES) | inhibition at 10 µM [%] |
| --- | --- |
| N#CC1(c2ccc(N3Cc4c(ccnc4-c4ccc(F)cc4OCC(F)F)C3=O)cc2)CC1 [Example 302, 1-(4-{4-[2-(2,2-difluoroethoxy)-4-fluorophenyl]-1-oxo-1,3-dihydro-2H-pyrrolo[3,4-c]pyridin-2-yl}phenyl) cyclopropane-1-carbonitrile] | 92 |
| Cn1nc(N2Cc3c(ccnc3-c3ccc(F)cc3OCC(F)(F)F)C2=O)cc1OC(F)F [Example 309, 2-[5-(difluoromethoxy)-1-methyl-1H-pyrazol-3-yl]-4-[4-fluoro-2-(2,2,2-trifluoroethoxy)phenyl]-2,3-dihydro-1H-pyrrolo[3,4-c]pyridin-1-one] | 60 |
| CN(C)C(=O)c1ccc(N2Cc3cnn(-c4ccccc4OCC(F)(F)F)c3C2)nc1 [Example 230, N,N-dimethyl-6-{1-[2-(2,2,2-trifluoroethoxy)phenyl]-4,6-dihydropyrrolo[3,4-c]pyrazol-5(1H)-yl}pyridine-3-carboxamide] | 73 |
| CC1(Oc2ccc(N3Cc4c(ccnc4-c4ccccc4OCC(F)(F)F)C3=O)cn2)COC1 [Example 204, 2-{6-[(3-methyloxetan-3-yl)oxy]pyridin-3-yl}-4-[2-(2,2,2-trifluoroethoxy)phenyl]-2,3-dihydro-1H-pyrrolo[3,4-c]pyridin-1-one] | 97 |
| O=C1c2ccnc(-c3ccc(F)cc3OCC(F)(F)F)c2CN1c1ccc(C2(O)CCOCC2)cc1 [Example 208, 4-[4-fluoro-2-(2,2,2-trifluoroethoxy)phenyl]-2-[4-(4-hydroxyoxatan-4-yl)phenyl]-2,3-dihydro-1H-pyrrolo[3,4-c]pyridin-1-one] | 99 |
| O=C1c2ccnc(-c3ccc(F)cc3OCC(F)(F)F)c2CN1c1ccc(C2(O)COC2)cn1 [Example 199, 4-[4-fluoro-2-(2,2,2-trifluoroethoxy)phenyl]-2-[5-(3-hydroxyoxetan-3-yl)pyridin-2-yl]-2,3-dihydro-1H-pyrrolo[3,4-c]pyridin-1-one] | 91 |
| CCOC(=O)c1ccc(-c2nccc3c2CN(c2ccc(F)cc2)C3=O)c(OC)c1 [Example 48, ethyl 4-[2-(4-fluorophenyl)-1-oxo-2,3-dihydro-1H-pyrrolo[3,4-c]pyridin-4-yl]-3-methoxybenzoate] | 70 |
| O=C1c2ccnc(-c3ccc(F)cc3OCC(F)(F)F)c2CN1c1ccc(C(O)(C(F)(F)F)C(F)(F)F)cc1 [Example 270, 4-[4-fluoro-2-(2,2,2-trifluoroethoxy)phenyl]-2-[4-(1,1,1,3,3,3-hexafluoro-2-hydroxypropan-2-yl)phenyl]-2,3-dihydro-1H-pyrrolo[3,4-c]pyridin-1-one] | 99 |
| O=C1c2ccnc(-c3ccccc3OCC(F)(F)F)c2CN1c1ccc(O[C@@H]2CCOC2)cc1 [Example 187, 2-(4-{[(3R)-oxolan-3-yl]oxy}phenyl)-4-[2-(2,2,2-trifluoroethoxy)phenyl]-2,3-dihydro-1H-pyrrolo[3,4-c]pyridin-1-one] | 100 |
| CC(C)(O)c1cc2c(c(-c3ccccc3OCC(F)F)n1)CN(c1ccc(OC(F)F)cc1)C2=O [Example 355, 4-[2-(2,2-difluoroethoxy)phenyl]-2-[4-(difluoromethoxy)phenyl]-6-(2-hydroxypropan-2-yl)-2,3-dihydro-1H-pyrrolo[3,4-c]pyridin-1-one] | 100 |
| N#Cc1ccc(N2Cc3ccnc(-c4ccc(F)cc4OCC(F)(F)F)c3C2)nc1 [Example 156, 6-{4-[4-fluoro-2-(2,2,2-trifluoroethoxy)phenyl]-1,3-dihydro-2H-pyrrolo[3,4-c]pyridin-2-yl}pyridine-3-carbonitrile] | 94 |
| O=C1c2ccnc(-c3ccncc3OCC(F)(F)F)c2CN1c1ccc(F)cc1 [Example 77, 2-(4-fluorophenyl)-4-[3-(2,2,2-trifluoroethoxy)pyridin-4-yl]-2,3-dihydro-1H-pyrrolo[3,4-c]pyridin-1-one] | 91 |
| C#CCCC1(CCOc2ccc(N3Cc4c(ccnc4-c4ccccc4OCC(F)(F)F)C3=O)cc2)N=N1 [Example 349, 2-(4-{2-[3-(but-3-yn-1-yl)-3H-diaziren-3-yl]ethoxy}phenyl)-4-[2-(2,2,2-trifluoroethoxy)phenyl]-2,3-dihydro-1H-pyrrolo[3,4-c]pyridin-1-one] | 100 |
| COc1ccccc1-c1nccc2c1CN(c1ccc(OC(F)(F)F)nc1)C2=O [Example 26, 4-(2-methoxyphenyl)-2-[6-(trifluoromethoxy)pyridin-3-yl]-2,3-dihydro-1H-pyrrolo[3,4-c]pyridin-1-one] | 92 |
| Cn1cc2c(c(-c3ccccc3OCC(F)(F)F)c1=O)CN(c1ccc(OC(F)F)cc1)C2=O [Example 236, 2-[4-(difluoromethoxy)phenyl]-5-methyl-7-[2-(2,2,2-trifluoroethoxy)phenyl]-1H-pyrrolo[3,4-c]pyridine-3,6(2H,5H)-dione] | 100 |
| O=C1c2ccnc(-c3ccccc3OCC(F)(F)F)c2CN1c1ccc(C2(O)CCC2)nc1 [Example 203, 2-[6-(1-hydroxycyclobutyl)pyridin-3-yl]-4-[2-(2,2,2-trifluoroethoxy)phenyl]-2,3-dihydro-1H-pyrrolo[3,4-c]pyridin-1-one] | 98 |
| O=C1c2ccnc(-c3ccc(F)cc3OCC3(F)COC3)c2CN1c1ccc(OC(F)F)cc1 [Example 127, 2-[4-(difluoromethoxy)phenyl]-4-{4-fluoro-2-[(3-fluorooxetan-3-yl)methoxy]phenyl}-2,3-dihydro-1H-pyrrolo[3,4-c]pyridin-1-one] | 100 |
| N#Cc1ccc(N2Cc3cnn(-c4ccccc4OCC(F)(F)F)c3C2)nc1 [Example 216, 6-{1-[2-(2,2,2-trifluoroethoxy)phenyl]-4,6-dihydropyrrolo[3,4-c]pyrazol-5(1H)-yl}pyridine-3-carbonitrile] | 98 |
| O=C1c2ccc(=O)n(-c3ccc(F)cc3OCC(F)(F)F)c2CN1c1ccc(OC(F)F)cn1 [Example 310, 6-[5-(difluoromethoxy)pyridin-2-yl]-1-[4-fluoro-2-(2,2,2-trifluoroethoxy)phenyl]-6,7-dihydro-1H-pyrrolo[3,4-b]pyridine-2,5-dione] | 99 |
| CS(=O)(=O)c1ccc(N2Cc3c(ccnc3-c3ccc(F)cc3OCC(F)(F)F)C2=O)cc1 [Example 88, 4-[4-fluoro-2-(2,2,2-trifluoroethoxy)phenyl]-2-[4-(methanesulfonyl)phenyl]-2,3-dihydro-1H-pyrrolo[3,4-c]pyridin-1-one] | 89 |
| CC(C)(O)COc1ccc(N2Cc3c(ccnc3-c3ccccc3OCC(F)(F)F)C2=O)cc1 [Example 195, 2-[4-(2-hydroxy-2-methylpropoxy)phenyl]-4-[2-(2,2,2-trifluoroethoxy)phenyl]-2,3-dihydro-1H-pyrrolo[3,4-c]pyridin-1-one] | 100 |
| Cc1cncc(OCC(F)(F)F)c1-c1nccc2c1CN(c1ccc(OC(F)F)cc1)C2=O [Example 175, 2-[4-(difluoromethoxy)phenyl]-4-[3-methyl-5-(2,2,2-trifluoroethoxy)pyridin-4-yl]-2,3-dihydro-1H-pyrrolo[3,4-c]pyridin-1-one ditrifluoroacetate] | 100 |
